Like-named read-outs stand apart in the source and are kept apart here.
Key:
[1] = tested on: δ-PKC; format: cell-based; details: NG108-15 cells
Description: (§1) Naive NG108-15 cells were, therefore, incubated in for ten (10) min. in 100 nM PMA, to then determine localization of δ-PKC and ε-PKC.

[2] = tested on: ε-PKC; format: cell-based; details: NG108-15 cells; for ε-PKC (% cells) Cytoplasmic staining / ε-PKC (% cells) Perinuclear staining: EtOH exposure, n = 5; for ε-PKC (% cells) Cytoplasmic staining: control 5 ± 2; for ε-PKC (% cells) Perinuclear staining: control 95 ± 2
Description: as §1

[3] = tested on: ε-PKC; experiment: Translocation of ε-PKC in NG108-15 and CHO cells expressing the applicable receptor; format: cell-based
Text: (§2) To determine whether addictive drugs other than ethanol would cause translocation of some proteins, we examine the effects of various receptor agonists and antagonists on ε-PKC δ-PKC or PKA Cα translocation in NG108-15 and CHO cells expressing the applicable receptor. […] Adenosine is also implicated in some behavioral effects of ethanol.
(§3) The mechanisms underlying ethanol- and dopamine-mediated translocation of ε-PKC and δ-PKC were studied by altering the activity of various molecules that might be in the pathways leading to translocation.

[4] = tested on: GFP-RIIβ; details: +100 mM EtOH 30 min, unstimulated: Golgi Apparatus
[5] = tested on: CRE-regulated luciferase expression; experiment: CRE-luciferase reporter in NG108-15 cells; format: cell-based; details: NG108-15 cells; for increase in luciferase activity above control: 200 mM ethanol
Description: Luciferase is used as a reporter gene in a transient expression system to identify substances that alter the effects of ethanol on CRE-regulated gene expression. Cells are cultured as described in Dohrman et al., Proc Natl Acad Sci USA (1996) 93:10217-10221, and are transfected using Effectene (Qiagene) as described by the manufacturers. Twenty-four hours after transfection the cells are treated with 200 mM ethanol for 30 min. to 36 hr. Luciferase activity is measured using Luciferase Assay System (Promega) and normalized to β-galactosidase activity.
(§4) NG108-15 cells were co-transfected with a fusion construct containing the cAMP response element (CRE) fused to luciferase as a reporter gene (Stratagene).
Since the ERK/MAPK pathway may regulate CREB phosphorylation and CRE-mediated gene expression, NG108-15 cells having the luciferase construct were co-incubated with 200 mM ethanol and a MEK inhibitor (PD98059 (2 nM, Calbiochem, San Diego, Calif.) or U0126 (1 μM, Calbiochem, San Diego, Calif.)) or a dominant negative MEK construct (DN-MEK, Dr. R. Seger) in which Lys-97 was replaced by alanine.
as §4

[6] = tested on: GFP-Cα; format: cell-based
[7] = tested on: CREB (GAL4-CREB fusion, luciferase reporter); experiment: GAL4-CREB / GAL4-luciferase reporter in NG108-15 cells; format: cell-based; details: ethanol exposure
Description: Cells are cultured as described in Dohrman et al., Proc Natl Acad Sci USA (1996) 93:10217-10221, and are transfected using Effectene (Qiagene) as described by the manufacturers. […] Luciferase activity is measured using Luciferase Assay System (Promega) and normalized to β-galactosidase activity.
NG108-15 cells are co-transfected with a GAL4-CREB fusion construct and with a second construct containing the DNA binding site of GAL4 fused to luciferase as a reporter gene. […] The ethanol-induced increase in luciferase activity induced was inhibited by Rp-cAMPS but not by the CaMK and PKC inhibitors KN-62 and GF, respectively (FIGS. 15 and 16B).

[8] = tested on: δ-PKC; experiment: Translocation of δ-PKC in NG108-15 and CHO cells expressing the applicable receptor; format: cell-based
Text: as §2, §3

[9] = tested on: Ethanol-indicative proteins in CHO cells
Text: (§5) The particular protein and cellular subregion(s) selected for examination can vary depending on the cell type to be used in a particular method. Cells used in the methods of the invention are of a cell type in which the selected protein is predominantly present in a different amount in a particular cellular subregion of ethanol-exposed cells compared to ethanol-unexposed cells. […] One of skill in the art can readily determine the intracellular distribution of other ethanol indicative proteins by staining ethanol-exposed and ethanol-unexposed cells of various cell types with stains (e.g., antibodies) specific for such proteins.

[10] = tested on: Ethanol-indicative proteins in NG108 cells; details: ethanol 10 minutes or 12-48 hours
Text: as §5

[11] = tested on: Ethanol-indicative proteins in Purkinje cells; details: Purkinje cells in brain section; ethanol 72 hr exposure; EUC origin Cytoplasm
Text: as §5

[12] = tested on: Ethanol-indicative proteins in lymphocytes; details: Lymphocyte; ethanol-exposed; EUC origin Cytoplasm
Text: as §5

[13] = tested on: PKCδ-GFP; details: +100 mM EtOH/30 min; for Subcellular Localization of PKCδ-GFP: unstimulated: Golgi Apparatus
[14] = tested on: ε-PKC; format: cell-based; details: NG 108-15 or CHO cells; Ethanol 200 mM, 30 min; no compound: Perinucleus
Description: NG 108-15 or CHO cells were pre-incubated in the presence or absence of the indicated inhibitor for 30 min. (except for GF which was pre-incubated for 1 hour), then further incubated in the absence or presence of 200 mM ethanol for 30 min.

[15] = tested on: CREB phosphorylation; experiment: CREB phosphorylation measured with antibody specific for phosphorylated CREB; format: cell-based
[16] = tested on: CRE-mediated gene expression; experiment: CRE-luciferase reporter assay in NG108-15/D2 cells
Description: Cells were transiently transfected with a CRE-luciferase reporter construct to measure gene expression via endogenous CRE-binding protein (CREB).
NG108-15/D2 cells were plated at 1×10^6 cells/100 mm plate, grown in defined medium for 3 days, and then transfected with 10 μg of CRE-luciferase construct using the LipofectAMINE reagent (GIBCOL) as recommended by the manufacturer. Cells were cultured for 24 h post transfection before being seeded into 12-well plates. […] Cells were then washed with PBS and cultured for a total of 5 h. Cell extracts were prepared and luciferase activity measured with a luciferase assay system (Promega, Madison, Wis.), using a Rosys Anthos Lucy2 microplate luminometer (Anthos Labtec Instruments, Austria). Results are expressed as percent increase over control. Data represent three or more separate experiments from triplet wells. Luciferase activities were normalized for transfection efficiency determined in cells transfected in parallel with pCMVβgalactosidase. β-galactosidase activity was measured using a kit from Strategene (La Jolla, Calif.).

[17] = tested on: PKA Cα; format: cell-based
Text: as §2

[18] = tested on: PKA Cα; experiment: PKA Cα translocation in NG108-15/D2 cells (immunocytochemistry, cell fractionation/western)
[19] = tested on: PKA Cα; experiment: PKA Cα translocation in primary cultures of hippocampal neurons
[20] = ethanol 10′ exposure, EUC origin Perinucleus

## CCO [Ethanol, ethanol]
[1]; 25 mM ethanol, 4 days
  ethanol-induced altered localization of δ-PKC: also observed
[1]; 200 mM EtOH 48 hours, n = 5, control 74 ± 7
  δ-PKC (% cells) Golgi Staining: 2 ± 2 % cells
[1]; 200 mM EtOH, 48 hours
  localization of δ-PKC: localized to the perinucleus and nucleus and absent from the Golgi
[2]; 25 mM ethanol, 4 days
  ethanol-induced altered localization of ε-PKC: also observed
[2]; listed as EtOH
  ε-PKC (% cells) Cytoplasmic staining: 94 ± 2 % cells
  ε-PKC (% cells) Perinuclear staining: 94 ± 3 % cells
[2]; listed as ethanol
  ε-PKC (% cells) Cytoplasmic staining: more than 90 % cells
  ε-PKC (% cells) Perinuclear staining: more than 90 % cells
[3]; NG108-15 cells expressing the applicable receptor, 200 mM Ethanol, 50 nM NPA, 1 μM D-ala-D-leu-enkephalin, 2 μM R(+) methanindamide, 20 μM Carbachol, 10^−5 M UK14304, 20 nM CCPA, 100 nM CGS-21680 HCl, None: Perinucleus
  Predominant Localization of ε-PKC (agent alone): Cytoplasm
[4]; 1° Glia
  Subcellular Localization of GFP-RIIβ: Golgi Apparatus
[4]; 1° Neurons
  Subcellular Localization of GFP-RIIβ: Golgi Apparatus
[4]; NG108-15/D2R
  Subcellular Localization of GFP-RIIβ: Golgi Apparatus
[5]; 50 mM ethanol, 14-hour exposure
  increase in luciferase activity: about 25%
[5]; 4 hour exposure
  increase in luciferase activity above control: 29±6%
[5]; 14 hours of exposure
  increase in luciferase activity above control: 79±4%
[5]; ethanol exposure
  increase of expression of luciferase (CRE-luciferase): more than 2 fold
[6]; 1° Glia (rat hippocampus culture), +100 mM EtOH/30 min or 50 nM NPA/30 min, unstimulated: Golgi Apparatus
  Subcellular localization of GFP-Cα: Nucleus
[6]; 1° Glia, +100 mM EtOH/30 min or 50 nM NPA/30 min
  cells showing the stated localization of GFP-Cα: [<20% cells]
[6]; 1° Neurons (rat hippocampus culture), +100 mM EtOH/30 min, unstimulated: Golgi Apparatus
  Subcellular localization of GFP-Cα: Nucleus
[6]; 1° Neurons, +100 mM EtOH/30 min
  cells showing the stated localization of GFP-Cα: [>50% cells]
[6]; NG108-15/D2R, +100 mM EtOH/30 min or 50 nM NPA/30 min
  cells showing the stated localization of GFP-Cα: [>50% cells]
[6]; NG108-15/D2R, +100 mM EtOH/30 min or 50 nM NPA/30 min, unstimulated: Golgi Apparatus
  Subcellular localization of GFP-Cα: Nucleus
[7]
  increase of expression of luciferase (GAL4-CREB / GAL4-luciferase): approximately 2 fold
[8]; 200 mM Ethanol or 50 nM NPA, None: Golgi
  Predominant Localization of δ-PKC (agent alone): Perinucleus &
[8]; D2-receptor-expressing NG108-15 and CHO cells, 10^−9 M NPA or 25 mM ethanol alone
  Translocation of δ PKC and δ PKC, agent alone: neither agent alone caused translocation
[9]; [20]
  Cellular subregion in which the protein is predominantly present, EEC (Destination): RACK 2 (β′COP): Cytoplasm
  Cellular subregion in which the protein is predominantly present, EEC (Destination): ε-PKC: Cytoplasm
[9]; ethanol 10 minutes or 12-48 hours, EUC origin Golgi
  Cellular subregion in which the protein is predominantly present, EEC (Destination): δ-PKC: Perinucleus and nucleus
[10]; EUC origin Golgi
  Cellular subregion in which the protein is predominantly present, EEC (Destination): RIIβ: Nucleus
  Cellular subregion in which the protein is predominantly present, EEC (Destination): δ-PKC: Perinucleus and nucleus
[10]; EUC origin Nucleus
  Cellular subregion in which the protein is predominantly present, EEC (Destination): Protein Phosphatase I and IIB: Cytoplasm
[10]; EUC origin Perinucleus
  Cellular subregion in which the protein is predominantly present, EEC (Destination): RACK 2 (β′COP): Cytoplasm
  Cellular subregion in which the protein is predominantly present, EEC (Destination): ε-PKC: Cytoplasm
[11]
  Cellular subregion in which the protein is predominantly present, EEC (Destination): ε-PKC: Not detectable
[12]
  Cellular subregion in which the protein is predominantly present, EEC (Destination): δ-PKC: Cytoplasm
  Cellular subregion in which the protein is predominantly present, EEC (Destination): ε-PKC: Cytoplasm
[13]; 1° Glia
  Subcellular Localization of PKCδ-GFP: Golgi Apparatus
[13]; NG108-15/D2R
  cells showing the stated localization of PKCδ-GFP: [>50% cells]
  Subcellular Localization of PKCδ-GFP: Perinucleus/
[14]
  Predominant ε-PKC Localization: Cytoplasm

## CCCN1CCc2cccc3c2[C@H]1Cc1ccc(O)c(O)c1-3 [NPA, R(−)-10,11-dihydroxy-N-n-propylnorapomorphine]
[3]
  Predominant Localization of ε-PKC (agent alone): Cytoplasm
[15]
  levels of CREB phosphorylation, co-incubation of ethanol and NPA: synergistic interactions
[16]
  CRE-mediated luciferase activity, subthreshold NPA and ethanol together: striking synergistic increase
  luciferase activity (CRE-luciferase): increases luciferase activity to the same extent as forskolin
[17]
  Predominant Localization of PKA Cα (agent alone): Nucleus &
  translocation of PKA-Cα, agent alone: did not cause any perceptible translocation
  translocation of PKA-Cα, co-incubation of ethanol and NPA: maximal translocation
[18]
  PKA Cα in subcellular fractions (Western blot): translocation of PKA Cα from the membrane fraction to the nucleus and cytoplasm
  PKA Cα localization after agonist or ethanol (immunostaining): translocation of PKA Cα from the Golgi into the cytoplasm and nucleus
  PKA Cα translocation, subthreshold NPA and ethanol together: striking synergistic increase
  PKA translocation at subthreshold concentration, agent alone: did not cause PKA translocation
  time at which NPA-induced PKA Cα translocation reaches a maximum: 10 min
[18]; read-out: Km of NPA-induced PKA Cα translocation (function of NPA concentration)
  Km: 1.6 nM
[19]
  PKA Cα localization after agonist or ethanol: PKA Cα translocation to the cytoplasm, neurites and nucleus
  PKA Cα translocation, subthreshold NPA and ethanol together: Synergy of PKA Cα translocation occurs
[6]
  Subcellular localization of GFP-Cα: Nucleus
  cells showing the stated localization of GFP-Cα: [>50% cells]
[8]
  Predominant Localization of δ-PKC (agent alone): Perinucleus &
  Translocation of δ PKC and δ PKC, agent alone: neither agent alone caused translocation
  Translocation of δ PKC and δ PKC, co-incubation of NPA and ethanol: induced
